Consider one compound from publication PMC7297862, “In Vivo Tumor Growth Inhibition and Antiangiogenic Effect of Cyclic NGR Peptide-Daunorubicin Conjugates Developed for Targeted Drug Delivery” (Pathology Oncology Research, 2019).

Data set [1] relates to subcutaneous Kaposi's sarcoma bearing SCID mice. As to the kind of experiment: Subcutaneous Kaposi's sarcoma model. Type of data set: in vivo, mouse. The conditions noted are these: KS s.c. model, free Dau 1 mg/kg 5 treatments. From the text: (§1) The immunodeficient SCID mice on a C.B.-17 background were bred in specific opportunistic and pathogen free isolator breeding rooms. The breeding isolator was supplied with corn-cob bedding and standard VRF1 rodent chow and with acidified (pH = 3) sterilized distilled water. The mice from the breeding rooms were used for the subcutaneous model of KS and orthotopic model of human colon cancer. They were held in filter-top boxes in the experimental barrier rooms, and every box-opening was performed under a Class 100 laminar-flow hood. The animal housing density was in accordance with the international recommendations. The cage components, corn-cob bedding and food (VRF1 from Special Diet Services) were steam-sterilized in an autoclave (121 °C, 20 min). The animals used in these studies were cared for according to the “Guiding Principles for the Care and Use of Animals” based upon the Helsinki declaration, and they were approved by the local ethical committee. Permission license for breeding and performing experiments with laboratory animals: PEI/001/1738-3/2015 and PEI/001/2574–6/2015.
(§2) Kaposi’s sarcoma (KS) cells were injected into SCID female mice (19-24 g) (s.c.), 3 × 10^6 cells per animal in volume of 200 μL M199 medium per animal. Treatment started 35 days after cell inoculation when average tumor volume was 66 mm^3, by i.p. administration. […] Treatment volume was 0.2 mL/animal. Animal weight and tumor volumes were measured initially when the treatment started and at periodic intervals according to the treatment schedule. A digital caliper was used to measure the longest (a) and the shortest diameter (b) of a given tumor. The tumor volume was calculated using the formula V = ab^2 × π/6, whereby a and b represent the measured parameters (length and width). The experiment was terminated on day 70 after tumor transplantation (day 36 of treatment). The mice from all groups were sacrificed by cervical dislocation. Their primary tumors and livers were harvested and weighed.

For data set [2], the system named is orthotopic HT-29 human colon primary tumor. As to the kind of experiment: Vascularization (CD31 blood vessel density) in HT-29 primary tumor. As to conditions: percentage printed in Fig. 7d. Type of data set: in vivo, mouse. As for the experimental part: (§3) HT-29 human colon cancer cells were injected into SCID female mice subcutaneously (s.c.), 3 × 10^6 cells per animal in volume of 200 μL M199 medium per animal, in order to establish tumor for transplantation. After 2 weeks, the mice with palpable tumors were sacrificed by cervical dislocation, and the subcutaneous tumor was dissected out aseptically. Tumor pieces of 2 mm^3 were transplanted orthotopically, under aseptic conditions into anesthetized (narcotic mixture: tiletamine, zolazepam, xylazine, butorphanol) SCID female mice (19-25 g). A small midline incision (0.5 cm) was made and the colorectal part of the intestine was exteriorized. Serosa of the site where the tumor pieces were to be implanted were removed. […]
(§4) One group of mice were treated with free Dau (1 mg/kg body weight) on days 6, 13 and 20 after tumor transplantation. […] Their primary tumors and livers were harvested and weighed, while metastases were counted in other organs.
(§5) The routinely formalin-fixed tumors were dehydrated in a graded series of ethanol, infiltrated with xylene and embedded into paraffin at a temperature not exceeding 60 °C. […] The KI-67-positive tumor cells were counted manually per fields of vision under light microscope (400-fold magnification), and 3 fields of view per tumor were evaluated. Proliferation index was calculated as percentage of KI-67 positive cells from all cells in the field of view. […]

Data set [3] in a line: MTT antiproliferative assay on MRC-5 cells. Type of data set: cell-based. The conditions noted are these: human, MRC-5 cells (normal, non-cancerous human fibroblasts), 72 h continuous treatment, average ± SD. As for the experimental part: (§6) KS (Kaposi’s sarcoma) derived from human Kaposi sarcoma and HT-29 (human colorectal adenocarcinoma) cell line obtained from ATCC were cultured in RPMI 1640 medium with glutamine (Roswell Park Memorial Institute Medium, Lonza, Basel, Switzerland), and MRC-5 (normal fibroblast) cells were cultured in DMEM (Dulbecco’s Modified Eagle’s Medium, Lonza). All media were supplemented with 10% heat-inactivated FBS (Fetal Bovine Serum, Euroclone, Milan, Italy), and with 1% penicillin/streptomycin (Sigma-Aldrich). Cells were cultured in sterile T25 or T75 flasks with ventilation cap (Sarstedt, Nümbrecht, Germany) at 37 °C in a humidified atmosphere with 5% CO2.
(§7) For evaluation of in vitro antiproliferative activity of NGR-Dau conjugates and free Dau, cell viability was determined by MTT assay (3-(4,5-dimethylthiazol-2-yl)-2,5-diphenyl-tetrazolium bromide (Sigma Aldrich)). […] The formazan crystals were dissolved in 100 μL of a 1:1 solution of DMSO (Sigma-Aldrich):EtOH (Molar Chemicals) and the absorbance was measured after 15 min at λ = 570 nm by using a microplate reader (Bio-Rad, model 550, Hercules, CA, USA). The IC50 values of the conjugates and free drug were calculated using GraphPad Prism 6 (GraphPad Software, San Diego, CA, USA). […]
(In general: Formazan colour is commonly taken as a measure of viable cells.)

Data set [4] has as its system orthotopic HT-29 human colon primary tumor. As to the kind of experiment: Proliferation index (KI-67) in HT-29 primary tumor. It is filed as in vivo, mouse. As for the experimental part:
as §3, §4, §5

Data set [5] relates to orthotopic HT-29 human colon carcinoma bearing SCID mice. As to the kind of experiment: Orthotopic HT-29 human colon tumor model. It is filed as in vivo, mouse. As to conditions: orthotopic HT-29 model.
Source text: as §1
HT-29 human colon cancer cells were injected into SCID female mice subcutaneously (s.c.), 3 × 10^6 cells per animal in volume of 200 μL M199 medium per animal, in order to establish tumor for transplantation. After 2 weeks, the mice with palpable tumors were sacrificed by cervical dislocation, and the subcutaneous tumor was dissected out aseptically. Tumor pieces of 2 mm^3 were transplanted orthotopically, under aseptic conditions into anesthetized (narcotic mixture: tiletamine, zolazepam, xylazine, butorphanol) SCID female mice (19-25 g). A small midline incision (0.5 cm) was made and the colorectal part of the intestine was exteriorized. Serosa of the site where the tumor pieces were to be implanted were removed. Tumor tissue fragments of HT-29 human colon tumor were implanted on the top of the animal intestine; an 8/0 surgical (polypropylene) suture was used to suture it on the wall of the intestine. The intestine was returned to the abdominal cavity, and the abdominal wall was closed with 4/0 surgical (polyglycolic acid) sutures. The wound was sterilized and the animals were kept in a sterile environment. On the next day, no sign of pain and/or stress of the mice was observed. The treatments started 6 days after tumor transplantation by i.p. administration of the compounds dissolved in distilled water for injection. 8 mice per group were used.
One group of mice were treated with free Dau (1 mg/kg body weight) on days 6, 13 and 20 after tumor transplantation. Animal groups treated with compounds 1 and 2 were administered with a dose of 10 mg/kg Dau content (33.8 and 33.5 mg/kg of each conjugate, respectively) on days 6, 8, 10, 13, 17, 20 and 24 after tumor transplantation. Control group was treated with sterile water as solvent in 0.2 mL volume per animal. The experiment was terminated on day 27 after tumor transplantation (day 22 of treatment). Daunorubicin treated group was terminated on day 24 after tumor transplantation (day 19 of treatment) due to significant weight loss of the animals. The mice from all groups were sacrificed by cervical dislocation. Their primary tumors and livers were harvested and weighed, while metastases were counted in other organs.

The subject of data set [6] is CD13(+) Kaposi's sarcoma cells (KS). As to the kind of experiment: MTT antiproliferative assay on KS cells. Type of data set: cell-based. The conditions noted are these: Homo sapiens, 24 h treatment followed by 48 h incubation in drug free medium, average ± SD. As for the experimental part:
as §6, §7

Data set [7] concerns subcutaneous Kaposi's sarcoma primary tumor. As to the kind of experiment: Vascularization (CD31 blood vessel density) in KS primary tumor. Type of data set: in vivo, mouse. As to conditions: percentage printed in Fig. 7c. The protocol:
as §2, with “The experiment was terminated on day 70 after tumor transplantation (day 36 of treatment). The mice from all groups were sacrificed by cervical dislocation. Their primary tumors and livers were harvested and weighed.” left out
(§8) The routinely formalin-fixed tumors were dehydrated in a graded series of ethanol, infiltrated with xylene and embedded into paraffin at a temperature not exceeding 60 °C. […] The KI-67-positive tumor cells were counted manually per fields of vision under light microscope (400-fold magnification), and 3 fields of view per tumor were evaluated. Proliferation index was calculated as percentage of KI-67 positive cells from all cells in the field of view. The CD31-positive blood vessels were counted manually using light microscope (200-fold magnification), whereby 3 fields of view per tumor were evaluated, and blood vessel density was calculated as number of blood vessels per mm^2.

The test system is the same in data set [8]. As to the kind of experiment: Proliferation index (KI-67) in KS primary tumor. It is filed as in vivo, mouse. As to conditions: percentage printed in Fig. 7a. As for the experimental part:
as §2, with “The experiment was terminated on day 70 after tumor transplantation (day 36 of treatment). The mice from all groups were sacrificed by cervical dislocation. Their primary tumors and livers were harvested and weighed.” left out
as §8

The test system of data set [9] is CD13(−) HT-29 human colorectal adenocarcinoma cells. Description: MTT antiproliferative assay on HT-29 cells. It is filed as cell-based. As to conditions: average ± SD. The protocol: as §6, §7

Where two headings read alike, the source gives them in different places.

As to `COc1cccc2c1C(=O)c1c(O)c3c(c(O)c1C2=O)C[C@@](O)(C(C)=O)C[C@@H]3O[C@H]1C[C@H](N)[C@H](O)[C@H](C)O1` [Dau, daunorubicin], the “decrease of animal body weight at end of experiment” value in data set [1] (conjugates 10 mg/kg Dau content i.p. 11 treatments, day 70 after cell inoculation, 5 animals per group) worked out at 16.7%. For the same compound, the “inhibition of tumor volume compared to control” value in data set [1] (conjugates 10 mg/kg Dau content i.p. 11 treatments, end of experiment (day 70)) amounted to 18.6%. The “decrease of liver/body weight ratio in comparison to control” value in data set [1] (day 70, p < 0.05) worked out at 12.3%; in data set [5] (free Dau 1 mg/kg 3 treatments, p < 0.05), 14.5%. Further, the figures for the “blood vessel density, percentage of control” value in [2] and in [7] were 62.0% and 81.4%, respectively. Further, the IC50 at 72 h in [3] turned out to be 250 ± 60 nM. Moreover, the results for the “proliferation index, percentage of control” value in [4] (percentage printed in Fig. 7b) and in [8] were 88.8% and 98.2%, respectively. Also, the “inhibition of proliferation (KI-67 proliferation index) compared to control” value in data set [4] (significant) was found to be 11.2%. Moreover, the “inhibition of tumor weight compared to control” value in [5] (conjugates 10 mg/kg Dau content 7 treatments (day 27), free Dau 1 mg/kg 3 treatments (day 24)) is recorded as 67.7%. The “animal body weight during treatment” value in data set [5] (conjugates 10 mg/kg Dau content i.p. 7 treatments, free Dau 1 mg/kg 3 treatments, days after tumor transplantation, 8 animals per group) is “significantly decreased body weight from day 17”. Moreover, in data set [5] (conjugates day 27, Dau day 24), the “liver/body weight ratio, percentage of control” value came out at 85.5%. Also, in data set [5] (control 7 out of 8), the “animals with metastases near the primary tumor, out of 8 animals” value worked out at 1. In addition, in data set [5] (metastases near the primary tumor), the “inhibition of weight of metastases in comparison to control” value amounted to 78.3%. Besides, the “tumor weight, percentage of control” value in data set [5] (percentage printed in Fig. 6b, conjugates day 27, Dau day 24) was 32.3%. The “weight of metastases, percentage of control” value in data set [5] (percentage printed in Fig. 6d) came out at 21.7%. The half-inhibitory concentration (IC50) amounted to 100 ± 10 nM in data set [6]; 90 ± 10 nM in [9] (24 h treatment followed by 48 h incubation in drug free medium, read-out: HT-29 (24 h) IC50); 100 ± 10 nM in data set [9] (72 h continuous treatment, read-out: HT-29 (72 h) IC50).

The term IC50 denotes the concentration that gives 50% inhibition.
